Consider 17 compounds from PubChem BioAssay (NCI).

Common to all, as to assay: NCI anticancer screen, dose series, 48 h
The test system of assay [1] is 786-0 renal.
Assay [2] has as its system A549 NSCLC.
The test system of assay [3] is CCRF-CEM leukemia.
Assay [4] relates to HS 578T breast.
In assay [5] the test system is K-562 leukemia.
Assay [6] has as its system MDA-N.
Assay [7] concerns MOLT-4 leukemia.
Assay [8] concerns NCI/ADR-RES ovarian.
For assay [9], the system named is OVCAR-8 ovarian.
Assay [10] has as its system RPMI-8226 leukemia.
Assay [11] concerns SF-295 CNS.
For assay [12], the system named is UO-31 renal.
The test system of assay [13] is A498 renal.
The subject of assay [14] is BT-549 breast.
In assay [15] the test system is MALME-3M melanoma.
Assay [16] concerns NCI-H226 lung.
The subject of assay [17] is RXF 393 renal.
The test system of assay [18] is CAKI-1 renal.
The test system of assay [19] is OVCAR-4 ovarian.

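The compound was tested at five concentrations on cells cultured in 96-well plates, with a 48-hour exposure period. TGI marks complete inhibition of growth.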

In the case of `COc1cc(OC)c(C2c3cc4c(cc3OC(N3CCCC3)C2C)OCO4)c(OC)c1` (configuration not stated), the TGI in [1] was determined as 53.8 µM; in assay [2], 87.9 µM; in assay [3] it was 45.5 µM; in [4], 18.1 µM; in assay [5], 58.2 µM; in assay [6] it was 35.4 µM. In addition, the TGI is 31.6 µM in assay [7]; 67 µM in assay [8]; over 100 µM in [9]; 43.1 µM in [10]; 36.1 µM in assay [11]; 25.8 µM in [12].
In the case of `COC(=O)C1CCCN1C(=O)C(Cc1cn(S(=O)(=O)c2ccc(C)cc2)cn1)NC(=O)OC(C)(C)C` (configuration not stated), the TGI in assay [1], in [13], in [2], in assay [14], in [3] and in assay [4] was over 100 µM in each case. In addition, the TGI in assay [5], in assay [15], in assay [6], in assay [7], in [16] and in assay [9] was over 100 µM throughout. Moreover, the TGI in assay [10], in assay [17] and in assay [12] was over 100 µM each time.
`Oc1cccc(-c2nc3cc(F)ccc3s2)c1`: the TGI in [1] came to 39 µM; in assay [13] it was 27.6 µM; in assay [2] it was 88.5 µM; in assay [14], 45.1 µM; in assay [18] it was 35.2 µM; in assay [3] it was 73.8 µM. The TGI in assay [5] is over 100 µM; in assay [15] it was 48.6 µM; in [6], 61.8 µM; in [7], 59 µM; in assay [16], 44 µM; in assay [8], 54.3 µM. Moreover, the TGI in assay [19] is 52.3 µM; in [9], 51.2 µM; in assay [10] it was 54.3 µM; in assay [17], over 100 µM; in assay [11], 50.7 µM; in [12] it was 52.5 µM.
With `CSc1ncnc2c1ncn2CCC#N`, the TGI in assay [1], in assay [13], in [2], in assay [18], in [3] and in assay [4] was over 100 µM each time. Moreover, the TGI in [5], in [15], in [6], in assay [7], in [16] and in assay [8] was over 100 µM throughout. In addition, the TGI in assay [19], in assay [9], in [10], in assay [17], in assay [11] and in [12] was over 100 µM throughout.
In the case of `CCOc1ccc(/C=C2/C(=O)N=C(NC(C)=O)N2C)cc1`, the TGI in [1], in assay [13], in assay [2], in [14], in assay [18] and in assay [6] was over 100 µM each time. In addition, the TGI in [7], in assay [16], in [8], in [19], in [9] and in assay [17] was over 100 µM in each case. The TGI in assay [11] and in assay [12] was over 100 µM throughout.
Regarding `CSc1cnc2ccccc2c1SC1CN(Cc2ccccc2)c2ccccc2C1=O` (configuration not stated), the TGI in assay [1], in [13], in assay [2], in assay [14], in assay [18] and in [3] was over 100 µM throughout. Further, the TGI in assay [5], in assay [15], in assay [6], in assay [7], in [16] and in [8] was over 100 µM each time. Further, the TGI in assay [19], in assay [10], in assay [17], in [11] and in assay [12] was over 100 µM in each case.
In the case of `S=C(Nc1ccc2c(c1)oc1ccccc12)c1cccnc1`, the TGI in assay [1], in assay [2], in [14], in [3], in assay [15] and in [6] was over 100 µM in each case. In addition, the TGI in [7] was over 100 µM; in [16], 96.1 µM; in assay [8], over 100 µM; in assay [19], over 100 µM; in assay [9], over 100 µM; in assay [10], over 100 µM. The TGI in [11] and in assay [12] was over 100 µM in each case.
On to `CCOC(=O)C1C2CCC1CC(=NNc1ccc([N+](=O)[O-])cc1[N+](=O)[O-])C2` (configuration not stated), for which the TGI in [1], in assay [2], in [14], in assay [18], in assay [3] and in assay [5] was over 50 µM throughout. Also, the TGI in assay [15], in [6], in assay [7], in [16], in assay [8] and in assay [19] was over 50 µM throughout. Moreover, the TGI in [9], in [10], in [17], in assay [11] and in assay [12] was over 50 µM each time.
Take `O=C1C(=Cc2ccccc2O)N=C(c2ccccc2)N1n1c(-c2ccccc2)nc2ccccc2c1=O`: the TGI in [1] is over 100 µM; in assay [13], 64.1 µM; in assay [2], over 100 µM; in assay [14], 89.9 µM; in assay [18], 84.8 µM; in [3], 88.6 µM. Further, the TGI in [4] was over 100 µM; in assay [5], 78.2 µM; in assay [15], over 100 µM; in assay [6] it was over 100 µM; in assay [7], 77.7 µM; in assay [16], 79 µM. The TGI is over 100 µM in [9], over 100 µM in assay [10], 56.8 µM in assay [11] and 86.5 µM in assay [12].
`Cn1c2ccccc2c(=O)c2cccc(C(=O)NC(CCCN=C(N)N)C(=O)O)c21` (configuration not stated): the TGI in [1], in assay [2], in assay [14], in assay [4], in assay [5] and in assay [15] was over 100 µM each time. The TGI was over 100 µM in assay [6]; over 100 µM in [7]; over 100 µM in assay [16]; 96 µM in assay [8]; over 100 µM in assay [19]; over 100 µM in [9]. In addition, the TGI in assay [10], in assay [11] and in [12] was over 100 µM throughout.
`CCNC(=O)Nc1cccc(NC(=O)NCC)n1`: the TGI in [1], in assay [13], in assay [2], in assay [14], in assay [18] and in [3] was over 100 µM in each case. The TGI in assay [4], in assay [5], in assay [15], in assay [6], in assay [7] and in assay [16] was over 100 µM in each case. The TGI in assay [19], in [9], in assay [17], in assay [11] and in assay [12] was over 100 µM throughout.
In the case of `CCC(=O)ONC(=O)Cn1ccc([N+](=O)[O-])n1`, the TGI in [1], in [2], in [18], in [3], in assay [4] and in assay [5] was over 100 µM each time. Moreover, the TGI in assay [15], in assay [6], in assay [7], in assay [16], in assay [8] and in assay [9] was over 100 µM in each case. In addition, the TGI in assay [10], in assay [17], in assay [11] and in assay [12] was over 100 µM throughout.
Consider `COc1ccc(C2OC(c3ccncc3)=NN2C)cc1OC` (configuration not stated), for which the TGI in [1] was over 100 µM; in assay [13], 98.4 µM; in assay [2] it was over 100 µM; in [18] it was over 100 µM; in assay [3], over 100 µM; in assay [4], over 100 µM. Further, the TGI in [5], in assay [15], in assay [6], in [7], in assay [16] and in assay [8] was over 100 µM in each case. The TGI in assay [19], in [9], in [10], in [17], in assay [11] and in [12] was over 100 µM in each case.
In the case of `Nc1ccc(S(=O)(=O)Nc2nccs2)cc1`, the TGI in assay [1], in [13], in [2], in assay [14], in assay [3] and in [5] was over 100 µM throughout. Moreover, the TGI in [15], in assay [6], in assay [7], in [16], in assay [8] and in assay [19] was over 100 µM each time. The TGI in assay [9], in [10], in assay [17], in assay [11] and in assay [12] was over 100 µM in each case.
Turning to `COc1c(C(C)C)cc2c3c1OC(=O)[C@@]31CCCC(C)(C)C1CC2` (some centres not stated), the TGI is over 100 µM in assay [1]; 60.1 µM in assay [2]; over 100 µM in assay [18]; 59.7 µM in assay [3]; over 100 µM in assay [5]; 98.5 µM in assay [15]. Moreover, the TGI was over 100 µM in assay [7]; 44.4 µM in assay [16]; 62 µM in [9]; 59.8 µM in [10]; 56.3 µM in assay [17]; 78.7 µM in [11]. In addition, the TGI in [12] worked out at 57.8 µM.
As for `COC(=O)C1=C(C)NC(C)=C(C(=O)OC)C1c1nc2sccn2c1[N+](=O)[O-]`, the TGI in assay [1], in assay [13], in [2], in assay [14], in assay [18] and in assay [3] was over 100 µM each time. Moreover, the TGI in assay [4], in [5], in assay [7], in assay [16], in assay [8] and in [19] was over 100 µM each time. Further, the TGI in assay [9], in assay [10], in assay [17], in assay [11] and in [12] was over 100 µM each time.
Turning to `Cc1ccc2c(c1)C(=O)C1(C2)Cc2cccc(C)c2C1=O` (configuration not stated), the TGI in assay [1] is over 100 µM; in assay [13], over 100 µM; in [2], over 100 µM; in [18], 32.4 µM; in assay [3] it was over 100 µM; in assay [4], over 100 µM. Also, the TGI in assay [5], in assay [15], in assay [6], in assay [7], in [16] and in assay [8] was over 100 µM throughout. The TGI in assay [19], in assay [9], in [10], in assay [17], in [11] and in assay [12] was over 100 µM each time.
